Measurements: PubChem BioAssay (NCI)
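Results reflect a 48-hour exposure of cells in 96-well plates to compound at five concentrations. The concentration for 50% growth inhibition is given as GI50. Definition used: TGI = concentration required for complete inhibition of growth.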

Tests used:
Assay in all cases: NCI tumour cell line growth inhibition, 48 h
MDA-MB-435 = test system: MDA-MB-435
T-47D breast = test system: T-47D breast
IGROV1 ovarian = test system: IGROV1 ovarian
SNB-75 CNS = test system: SNB-75 CNS
OVCAR-4 ovarian = test system: OVCAR-4 ovarian
HCT-116 colon = test system: HCT-116 colon
M14 melanoma = test system: M14 melanoma
UACC-62 melanoma = test system: UACC-62 melanoma
CCRF-CEM leukemia = test system: CCRF-CEM leukemia
SF-268 CNS = test system: SF-268 CNS
EKVX NSCLC = test system: EKVX NSCLC

SMILES	TGI (MDA-MB-435) [µM]	TGI (T-47D breast) [µM]	TGI (IGROV1 ovarian) [µM]	TGI (SNB-75 CNS) [µM]	TGI (OVCAR-4 ovarian) [µM]	TGI (HCT-116 colon) [µM]	TGI (M14 melanoma) [µM]	TGI (UACC-62 melanoma) [µM]	TGI (CCRF-CEM leukemia) [µM]	TGI (SF-268 CNS) [µM]	TGI (EKVX NSCLC) [µM]	GI50 (MDA-MB-435) [µM]	GI50 (T-47D breast) [µM]	GI50 (SNB-75 CNS) [µM]	GI50 (CCRF-CEM leukemia) [µM]	GI50 (SF-268 CNS) [µM]	GI50 (EKVX NSCLC) [µM]
CCOC(=O)C(NC(=O)CC(C)C)(Nc1ccc(S(=O)(=O)Nc2nc(C)cc(C)n2)cc1)C(F)(F)F (configuration not stated)	> 100	> 100	> 100	> 100	> 100	> 100	> 100	> 100	> 100	> 100	> 100	–	–	–	–	–	–
Cc1ccc(S(=O)(=O)NC2C(=O)c3ccccc3C(=O)C2n2cnc3ccccc32)cc1 (configuration not stated)	36.4	> 100	75	> 100	26.1	> 100	> 100	74.4	> 100	> 100	> 100	–	–	–	–	–	–
CCCCCCCCC/C=C1\CC(CO)(COC(=O)C2CCCCC2)OC1=O (configuration not stated)	34.4	51.7	37.7	32.9	49.3	44.5	55.9	46.9	63.2	46.7	39.1	–	–	–	–	–	–
COc1cc(C2c3cc4c(cc3OC(Nc3ccccc3)C2C)OCO4)cc(OC)c1OC (configuration not stated)	0.527	> 100	> 100	99.2	> 100	> 33	> 86.5	> 100	> 19.9	> 100	> 88.5	–	–	–	–	–	–
N#Cc1c(Cl)c2ccccc2n2c1nc1ccccc12	> 100	46.8	38.7	> 100	84	33.5	69.8	> 100	47.2	83.7	70	–	–	–	–	–	–
CCSC1=N/C(=C\c2ccco2)C(Cl)=N1	> 100	> 100	> 100	> 100	–	> 100	> 100	> 100	> 100	> 100	> 100	–	–	–	–	–	–
O=c1oc2ccccc2c(O)c1C(c1ccc(/C=C/c2ccccc2)cc1)c1c(O)c2ccccc2oc1=O	80	> 100	> 100	66.5	> 100	> 100	–	> 100	> 100	64.9	> 100	–	–	–	–	–	–
C=C1CC(C)(COc2ccc3ccc(=O)oc3c2)OC1=O (configuration not stated)	9.35	17.3	10.8	22.6	11.1	6.38	4.97	13.2	5.11	33.5	26.7	–	–	–	–	–	–
CN(C)C(=O)Nc1cc2c3c(c1)CCCN3CCC2	> 10	> 10	> 10	> 10	> 10	> 10	> 10	> 10	> 10	> 10	> 10	–	–	–	–	–	–
NNc1nc2ccccc2s1	> 100	> 100	> 100	> 100	> 100	> 100	> 100	> 100	> 100	> 100	> 100	–	–	–	–	–	–
O=C(O)c1ccc(Nc2nc3ccccc3nc2-c2cccs2)cc1	> 100	> 100	> 100	> 100	> 100	> 100	–	> 100	> 100	> 100	> 100	–	–	–	–	–	–
O=C(C1C(c2ccccc2)N1C(c1ccccc1)c1ccccc1)C1C(c2ccccc2)N1C(c1ccccc1)c1ccccc1 (configuration not stated)	> 100	> 100	–	> 100	> 100	15.8	> 100	–	22.9	67.5	> 100	–	–	–	–	–	–
Cc1ccc(Nc2nc(N)nc3c2ncn3C2OC(CO)C(O)C2O)cc1 (configuration not stated)	> 100	> 100	> 100	> 100	> 100	> 100	> 100	> 100	> 100	–	> 100	–	–	–	–	–	–
O=C1c2c(ccc3c2CCC3)CC12Cc1cc3c(cc1C2)CCC3	> 100	> 100	> 100	> 100	> 100	> 100	> 100	–	> 100	> 100	> 100	–	–	–	–	–	–
COC(=O)C1=Cc2cc(OC)c(O)cc2[C@@H](c2ccc(O)c(OC)c2)[C@@H]1C(=O)OC	> 100	> 100	> 100	> 100	–	> 100	> 100	–	> 100	> 100	> 100	–	–	–	–	–	–
CCCCCCCCCCCCC(O)C1CCC(C(O)CCCCCCC(O)CCCCCCCC2=CC(C)OC2=O)O1 (configuration not stated)	> 100	> 100	> 100	> 100	> 100	> 100	45.7	–	79.9	> 100	> 100	27	14.8	74.5	15.4	41.2	23
